Experimental data published in PubChem BioAssay (NCI).
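The compound was tested at five concentrations on cells cultured in 96-well plates, with a 48-hour exposure period. TGI: total growth inhibition.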

How the values were obtained:
Experiment in all cases: DTP human tumour cell line panel, 48 h
786-0 renal = test system: 786-0 renal
A549 NSCLC = test system: A549 NSCLC
ACHN renal = test system: ACHN renal
BT-549 breast = test system: BT-549 breast
CCRF-CEM leukemia = test system: CCRF-CEM leukemia
COLO 205 colon = test system: COLO 205 colon
DU-145 prostate = test system: DU-145 prostate
EKVX NSCLC = test system: EKVX NSCLC
HCC-2998 colon = test system: HCC-2998 colon
HCT-116 colon = test system: HCT-116 colon
HCT-15 colon = test system: HCT-15 colon
HL-60(TB) leukemia = test system: HL-60(TB) leukemia
HOP-62 NSCLC = test system: HOP-62 NSCLC
HS 578T breast = test system: HS 578T breast
HT29 colon = test system: HT29 colon
IGROV1 ovarian = test system: IGROV1 ovarian
K-562 leukemia = test system: K-562 leukemia
KM12 colon = test system: KM12 colon
LOX IMVI melanoma = test system: LOX IMVI melanoma
MALME-3M melanoma = test system: MALME-3M melanoma
MCF7 breast = test system: MCF7 breast
MDA-MB-231 breast = test system: MDA-MB-231 breast
MDA-MB-435 = test system: MDA-MB-435
MDA-N = test system: MDA-N
MOLT-4 leukemia = test system: MOLT-4 leukemia
NCI-H226 lung = test system: NCI-H226 lung
NCI-H23 lung = test system: NCI-H23 lung
NCI-H460 lung = test system: NCI-H460 lung
NCI-H522 lung = test system: NCI-H522 lung
NCI/ADR-RES ovarian = test system: NCI/ADR-RES ovarian
OVCAR-3 ovarian = test system: OVCAR-3 ovarian
OVCAR-4 ovarian = test system: OVCAR-4 ovarian
OVCAR-5 ovarian = test system: OVCAR-5 ovarian
OVCAR-8 ovarian = test system: OVCAR-8 ovarian
RPMI-8226 leukemia = test system: RPMI-8226 leukemia
SF-268 CNS = test system: SF-268 CNS
SF-295 CNS = test system: SF-295 CNS
SF-539 CNS = test system: SF-539 CNS
SK-MEL-2 melanoma = test system: SK-MEL-2 melanoma
SK-MEL-28 melanoma = test system: SK-MEL-28 melanoma
SK-MEL-5 melanoma = test system: SK-MEL-5 melanoma
SN12C renal = test system: SN12C renal
SNB-19 CNS = test system: SNB-19 CNS
SR leukemia = test system: SR leukemia
SW-620 colon = test system: SW-620 colon
T-47D breast = test system: T-47D breast
TK-10 renal = test system: TK-10 renal
U251 CNS = test system: U251 CNS
UACC-257 melanoma = test system: UACC-257 melanoma
UACC-62 melanoma = test system: UACC-62 melanoma
UO-31 renal = test system: UO-31 renal
CAKI-1 renal = test system: CAKI-1 renal
HOP-92 NSCLC = test system: HOP-92 NSCLC
M14 melanoma = test system: M14 melanoma
PC-3 prostate = test system: PC-3 prostate
RXF 393 renal = test system: RXF 393 renal
SK-OV-3 ovarian = test system: SK-OV-3 ovarian
SNB-75 CNS = test system: SNB-75 CNS

Molecule `COc1ccccc1S(=O)Nc1ccccc1` (centres undefined) has a TGI (786-0 renal) greater than 100 µM, a TGI (A549 NSCLC) greater than 100 µM and a TGI (ACHN renal) greater than 100 µM. For the same molecule, the TGI (BT-549 breast) was greater than 100 µM, the TGI (CCRF-CEM leukemia) was greater than 100 µM and the TGI (COLO 205 colon) was greater than 100 µM. For the same molecule, the TGI (DU-145 prostate) was greater than 100 µM, the TGI (EKVX NSCLC) was greater than 100 µM and the TGI (HCC-2998 colon) was greater than 100 µM. For the same molecule, the TGI (HCT-116 colon) was greater than 100 µM, the TGI (HCT-15 colon) was greater than 100 µM and the TGI (HL-60(TB) leukemia) was greater than 100 µM. It also gave a TGI (HOP-62 NSCLC) greater than 100 µM, a TGI (HS 578T breast) greater than 100 µM and a TGI (HT29 colon) greater than 100 µM. It also gave a TGI (IGROV1 ovarian) greater than 100 µM, a TGI (K-562 leukemia) greater than 100 µM and a TGI (KM12 colon) of 85.1 µM. For the same molecule, the TGI (LOX IMVI melanoma) was greater than 100 µM, the TGI (MALME-3M melanoma) was greater than 100 µM and the TGI (MCF7 breast) was greater than 100 µM. The TGI (MDA-MB-231 breast) was greater than 100 µM, the TGI (MDA-MB-435) was greater than 100 µM and the TGI (MDA-N) was greater than 100 µM. The TGI (MOLT-4 leukemia) was greater than 100 µM, the TGI (NCI-H226 lung) was greater than 100 µM and the TGI (NCI-H23 lung) was greater than 100 µM. The TGI (NCI-H460 lung) was greater than 100 µM, the TGI (NCI-H522 lung) was greater than 100 µM and the TGI (NCI/ADR-RES ovarian) was greater than 100 µM. The TGI (OVCAR-3 ovarian) was greater than 100 µM, the TGI (OVCAR-4 ovarian) was greater than 100 µM and the TGI (OVCAR-5 ovarian) was greater than 100 µM. For the same molecule, the TGI (OVCAR-8 ovarian) was greater than 100 µM, the TGI (RPMI-8226 leukemia) was greater than 100 µM and the TGI (SF-268 CNS) was greater than 100 µM. The TGI (SF-295 CNS) was greater than 100 µM, the TGI (SF-539 CNS) was greater than 100 µM and the TGI (SK-MEL-2 melanoma) was greater than 100 µM. The TGI (SK-MEL-28 melanoma) was greater than 100 µM, the TGI (SK-MEL-5 melanoma) was greater than 100 µM and the TGI (SN12C renal) was greater than 100 µM. It also gave a TGI (SNB-19 CNS) greater than 100 µM, a TGI (SR leukemia) greater than 100 µM and a TGI (SW-620 colon) greater than 100 µM. The TGI (T-47D breast) was 95.5 µM, the TGI (TK-10 renal) was greater than 100 µM and the TGI (U251 CNS) was greater than 100 µM. The TGI (UACC-257 melanoma) was greater than 100 µM, the TGI (UACC-62 melanoma) was greater than 100 µM and the TGI (UO-31 renal) was greater than 100 µM.
`CC(=O)NCCc1c[nH]c2ccc(Cl)cc12` gave a TGI (786-0 renal) greater than 100 µM, a TGI (A549 NSCLC) greater than 100 µM and a TGI (ACHN renal) greater than 100 µM. The TGI (BT-549 breast) was greater than 100 µM, the TGI (CAKI-1 renal) was greater than 100 µM and the TGI (CCRF-CEM leukemia) was greater than 100 µM. The TGI (COLO 205 colon) was greater than 100 µM, the TGI (DU-145 prostate) was greater than 100 µM and the TGI (EKVX NSCLC) was greater than 100 µM. The TGI (HCC-2998 colon) was greater than 100 µM, the TGI (HCT-116 colon) was greater than 100 µM and the TGI (HCT-15 colon) was greater than 100 µM. For the same molecule, the TGI (HL-60(TB) leukemia) was greater than 100 µM, the TGI (HOP-62 NSCLC) was greater than 100 µM and the TGI (HOP-92 NSCLC) was greater than 100 µM. It also gave a TGI (HS 578T breast) greater than 100 µM, a TGI (HT29 colon) greater than 100 µM and a TGI (IGROV1 ovarian) greater than 100 µM. It also gave a TGI (K-562 leukemia) greater than 100 µM, a TGI (KM12 colon) greater than 100 µM and a TGI (LOX IMVI melanoma) greater than 100 µM. It also gave a TGI (M14 melanoma) greater than 100 µM, a TGI (MALME-3M melanoma) greater than 100 µM and a TGI (MCF7 breast) greater than 100 µM. It also gave a TGI (MDA-MB-231 breast) greater than 100 µM, a TGI (MDA-MB-435) greater than 100 µM and a TGI (MDA-N) greater than 100 µM. For the same molecule, the TGI (MOLT-4 leukemia) was greater than 100 µM, the TGI (NCI-H226 lung) was greater than 100 µM and the TGI (NCI-H23 lung) was greater than 100 µM. The TGI (NCI-H460 lung) was greater than 100 µM, the TGI (NCI-H522 lung) was greater than 100 µM and the TGI (NCI/ADR-RES ovarian) was greater than 100 µM. It also gave a TGI (OVCAR-3 ovarian) greater than 100 µM, a TGI (OVCAR-4 ovarian) greater than 100 µM and a TGI (OVCAR-5 ovarian) greater than 100 µM. It also gave a TGI (OVCAR-8 ovarian) greater than 100 µM, a TGI (PC-3 prostate) greater than 100 µM and a TGI (RPMI-8226 leukemia) greater than 100 µM. For the same molecule, the TGI (RXF 393 renal) was greater than 100 µM, the TGI (SF-268 CNS) was greater than 100 µM and the TGI (SF-295 CNS) was greater than 100 µM. The TGI (SF-539 CNS) was greater than 100 µM, the TGI (SK-MEL-2 melanoma) was greater than 100 µM and the TGI (SK-MEL-28 melanoma) was greater than 100 µM. For the same molecule, the TGI (SK-MEL-5 melanoma) was greater than 100 µM, the TGI (SK-OV-3 ovarian) was greater than 100 µM and the TGI (SN12C renal) was greater than 100 µM. It also gave a TGI (SNB-19 CNS) greater than 100 µM, a TGI (SNB-75 CNS) greater than 100 µM and a TGI (SR leukemia) greater than 100 µM. It also gave a TGI (SW-620 colon) greater than 100 µM, a TGI (T-47D breast) greater than 100 µM and a TGI (TK-10 renal) greater than 100 µM. For the same molecule, the TGI (U251 CNS) was greater than 100 µM, the TGI (UACC-257 melanoma) was greater than 100 µM and the TGI (UACC-62 melanoma) was greater than 100 µM. It also gave a TGI (UO-31 renal) greater than 100 µM.
